From US9655991B2, “Stable hydrogel compositions including additives” (Allergan Industries, S.A.S., priority 2010, dated 2017)

Assay: Oxidative degradation of gel by free radicals (H2O2) on rheometer
Details: gel with AA2G and lidocaine vs gel with lidocaine
Text: The effect of ascorbic acid 2-glucoside (AA2G™) on HA-based gel matrix oxidative degradation was studied. Oxidation testing was used as it allows testing of the resistance of a HA-based gel matrix to free radicals. Degradation by free radicals was simulated on a rheometer (Haake Rheostress 600) by addition of 1/7 ratio of H2O2 30% on the surface of a spread gel measured with a controlled stress rheometer according to the following method: frequency of 1 Hz with 0.8% controlled strain, during 3600 s at 35° C. The time value is taken at 5 Pa/s.

O=C1O[C@H]([C@@H](O)CO)C(O)=C1O[C@H]1O[C@H](CO)[C@@H](O)[C@H](O)[C@H]1O [Ascorbic acid 2-glucoside (AA2G™), Ascorbic acid 2-glucoside]
Protection against oxidative degradation (factor): 3
